# Literature values as cited in patent US20260272857A1, “AN ORALLY RAPIDLY DISINTEGRATING TABLET OF PROPRANOLOL AND ITS PROCESS OF PREPARATION” (NOVUMGEN LIMITED, priority 2023, published 2026).
# Structures can show the parent of a compound that is named as a salt.
# Assays:
# [1] = high permeability and high solubility drug
# [2] = in vivo
SMILES,BCS class in the Biopharmaceutical classification system [1],Elimination half-life [2] [h],Plasma half-life [2] [h]
CC(C)NCC(O)COc1cccc2ccccc12 (stereo not drawn) [Propranolol hydrochloride],BCS class I,–,–
"CC(C)NCC(O)COc1cccc2ccccc12 (stereo not drawn) [propranolol, 1-naphthalen-1-yloxy-3-(propan-2-ylamino) propan-2-ol]",–,8,3 to 6
